Holding throughout (format): biochemical
The target of experiment [1] is T1, MMP-2 (Homo sapiens, UniProt P08253).
T1 sequence (P08253 110-660): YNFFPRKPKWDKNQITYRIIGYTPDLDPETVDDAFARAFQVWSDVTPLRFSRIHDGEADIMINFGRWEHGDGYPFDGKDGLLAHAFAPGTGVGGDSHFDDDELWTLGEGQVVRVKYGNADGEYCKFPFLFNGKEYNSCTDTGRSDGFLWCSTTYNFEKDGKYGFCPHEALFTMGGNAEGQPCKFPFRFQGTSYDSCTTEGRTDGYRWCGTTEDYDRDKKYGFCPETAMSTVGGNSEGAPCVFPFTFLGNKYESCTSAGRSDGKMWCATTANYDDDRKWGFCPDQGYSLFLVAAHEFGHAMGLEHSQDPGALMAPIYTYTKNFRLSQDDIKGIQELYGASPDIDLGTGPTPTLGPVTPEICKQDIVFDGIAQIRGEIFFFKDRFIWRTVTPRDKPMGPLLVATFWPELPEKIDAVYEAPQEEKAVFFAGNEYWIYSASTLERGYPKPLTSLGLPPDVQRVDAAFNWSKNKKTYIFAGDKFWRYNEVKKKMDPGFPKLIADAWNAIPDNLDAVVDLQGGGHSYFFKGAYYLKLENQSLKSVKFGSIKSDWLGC
The experiment in a line: Automated MMP Profiling Assay, MMP-2 fluorogenic.

In experiment [2] the target is T2, MMP-9 (Homo sapiens, UniProt P14780).
T2 construct: from tissue; host or cells: human polymorphonuclear leukocytes (PMN) from whole blood (New York Blood Center), PMA-stimulated supernatant
The experiment in a line: Automated MMP Profiling Assay, MMP-9 fluorogenic. To be noted: for IC50: 96-well automated, P218. As to the method:
Briefly, polymorphonuclear leukocytes (PMN) preparations were isolated as described above from 3 or more units of freshly drawn whole blood obtained from the New York Blood Center (New York, N.Y.). Cells were resuspended in phosphate buffered saline (PBS) containing 100 ng/ml phorbol myristate acetate (PMA) in the presence of 50 mM diisopropylfluorophospate (DFP), 1 μg/ml leupeptin and aprotinin, and 1 mg/ml catalase for 1 hr at 37° C. Supernatants were collected by centrifugation (300×g) and the samples were frozen at -70° C. All chromatographic methods were performed at 4° C. Thawed samples were concentrated 5-fold using an Amicon chamber equipped with a YM-10 membrane. The concentrate was pressure dialyzed against 0.02M Tris-HCl, 0.1M NaCl, 1 mM CaCl2, 1 μM ZnCl2, 0.001% Brij-35, 0.02% sodium azide (NaN3), pH 7.5 and applied to DEAE ion exchange chromatography resin which was previously equilibrated with the same buffer at a flow rate of 0.4 ml/min. The column was extensively washed with the same buffer and gelatinase was eluted as 4 ml fractions from the column with 0.02M Tris-HCl, 0.5M NaCl, 1 mM CaCl2, 1 μM ZnCl2, 0.001% Brij-35, 0.02% NaN3, pH 7.5. Gelatinase containing fractions were observed by gelatin zymography (see below), loaded onto a gelatin agarose affinity resin and washed with the same buffer. Gelatinase activity was eluted at a flow rate of 1 ml/min from the column as 1 ml fractions with 0.02M Tris-HCl, 1M NaCl, 1 mM CaCl2, 1 μM ZnCl2, 0.001% Brij-35, 0.02% NaN3, pH 7.5 containing 10% dimethyl sulfoxide (DMSO). The fractions containing gelatinase activity were pooled and dialyzed against 0.005M Tris-HCl, 5 mM NaCl, 0.5 mM CaCl2, 0.1 μM ZnCl2, 0.001% Brij-35, pH 7.4. The protein content associated with material was determined with a micro-BCA assay (Pierce, Rockford, Ill.), lyophilized and reconstituted to a desired working concentration (100 μg/ml).
This assay was run with a protocol analogous to that reported for MMP-3 inhibition using the synthetic peptide P218 and each of the three enzymes and measuring quenched fluorescence. This assay with each invention compound was run with the three enzymes MMP-3, MMP-9 and MMP-2 in parallel as adapted for a 96-well microtitre plate using a Hamilton A® workstation.

For experiment [3], the target named is T3, MMP-3 (Homo sapiens, UniProt P08254).
T3 construct: Truncated Prostromelysin-257 was expressed in a soluble form in E.coli; made in house; host or cells: E. coli
The experiment in a line: Automated MMP Profiling Assay, MMP-3 fluorogenic. As to conditions: for IC50: 96-well automated, P218. The source says:
This assay with each invention compound was run with the three enzymes MMP-3, MMP-9 and MMP-2 in parallel as adapted for a 96-well microtitre plate using a Hamilton A® workstation.

[4] abbreviates: 96-well automated, P218, read-out: MMP-2 Fluorogenic IC50 (profiling).

The text below walks through data of US5789434A, “Derivatives of substituted 4-biarylbutyric acid as matrix metalloprotease inhibitors” (priority 1995, dated 1998).

Like-named read-outs stand apart in the source and are kept apart here.

T3 sequence (P08254 100-274 limits assumed): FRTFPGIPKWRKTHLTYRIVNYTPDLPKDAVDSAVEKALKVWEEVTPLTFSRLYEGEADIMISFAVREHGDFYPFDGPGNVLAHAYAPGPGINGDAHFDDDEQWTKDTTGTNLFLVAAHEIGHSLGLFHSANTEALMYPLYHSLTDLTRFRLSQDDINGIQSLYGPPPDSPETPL
T2 sequence (P14780 107-707 limits assumed): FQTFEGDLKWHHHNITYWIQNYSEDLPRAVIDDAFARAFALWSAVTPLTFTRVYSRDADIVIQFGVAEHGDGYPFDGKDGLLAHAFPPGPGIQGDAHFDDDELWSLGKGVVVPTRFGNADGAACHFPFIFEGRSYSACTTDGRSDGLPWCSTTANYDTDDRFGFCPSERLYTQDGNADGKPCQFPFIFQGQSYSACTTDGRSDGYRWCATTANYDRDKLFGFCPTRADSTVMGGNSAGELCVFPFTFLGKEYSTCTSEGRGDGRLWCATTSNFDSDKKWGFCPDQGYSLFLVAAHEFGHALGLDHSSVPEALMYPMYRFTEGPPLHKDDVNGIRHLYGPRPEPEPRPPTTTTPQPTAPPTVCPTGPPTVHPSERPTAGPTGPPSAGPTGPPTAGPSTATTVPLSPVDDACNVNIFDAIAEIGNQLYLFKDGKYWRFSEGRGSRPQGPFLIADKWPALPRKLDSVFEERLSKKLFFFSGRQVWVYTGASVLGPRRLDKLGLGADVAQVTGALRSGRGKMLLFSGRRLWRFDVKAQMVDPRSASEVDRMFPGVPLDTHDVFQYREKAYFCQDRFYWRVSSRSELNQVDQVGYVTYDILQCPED

As a reminder, the IC50 is the concentration at which inhibition is half-maximal. As to `O=C(CC(CCN1C(=O)c2cc3ccccc3cc2C1=O)C(=O)O)c1ccc(-c2ccc(Cl)cc2)cc1` (stereo not drawn) [Example 409, 2H-Benz[.function.]isoindole-2-butanoic acid, α-[2-(4'-chloro[1,1'-biphenyl]-4-yl)-2-oxoethyl]-1,3-dihydro-1,3-dioxo-], the concentration for half-maximal inhibition (IC50) worked out at 0.03 µM in experiment [1] (setting [4]), 0.0019 µM in experiment [2] and 0.0123 µM in experiment [3].
The like results for `O=C(CC(CCN1C(=O)c2cccc3c(Br)ccc(c23)C1=O)C(=O)O)c1ccc(-c2ccc(Cl)cc2)cc1` (stereo not drawn) [Example 418] were, in that order, 0.42 µM, 0.089 µM and 0.305 µM.
With `O=C(CC(CCc1ccccc1)C(=O)O)c1ccc(-c2ccc(O)cc2)cc1` (stereo not drawn) [Example 155, [1,1'-Biphenyl]-4-butanoic acid, 4'-hydroxy-γ-oxo-α-(2-phenylethyl)-], the IC50 in experiment [1] (setting [4]) was 0.05 µM; in experiment [2], above 1.25 µM; in experiment [3], 0.777 µM.
One may read the inhibition as the percentage by which the read-out fell short of the control. A low value points to a response near the control. `CCCCCOc1ccc(-c2ccc(C(=O)CC(CCCc3ccccc3)C(=O)O)cc2)cn1` (stereo not drawn) [Example 71, Benzenepentanoic acid, α-[2-oxo-2-[4-[6-(pentyloxy)-3-pyridinyl]phenyl]ethyl]-]: the values for the IC50 in experiment [1] (setting [4]) and in experiment [3] were 0.969 µM and 1.16 µM, respectively. The compound further had an inhibition at 5 µM in experiment [2] of 24%.
As to `O=C(c1ccc(-c2ccc(Cl)cc2)cc1)[C@H]1CCN(C(=O)OCc2ccccc2)[C@@H]1C(=O)O` [Example 166, 1,2-Pyrrolidinedicarboxylic acid, 3-[(4'-chloro[1,1'-biphenyl]-4-yl)carbonyl]-, 1-(phenylmethyl) ester, (2S-trans)-], the IC50 in experiment [1] was determined as 0.035 µM; in experiment [2], 0.381 µM; in experiment [3], 0.103 µM.
In the case of `CCCCCOc1ccc(-c2ccc(C(=O)[C@H]3CC[C@H](Sc4ccccc4)[C@@H]3C(=O)O)cc2)cc1` (relative stereo) [Example 317, Cyclopentanecarboxylic acid, 2-[[4'-(pentyloxy)[1,1'-biphenyl]-4-yl]carbonyl]-5-(phenylthio)-, (1α,2β,5α)-], the half-inhibitory concentration (IC50) is 0.037 µM in experiment [1] (setting [4]), 0.808 µM in experiment [2] and 0.075 µM in experiment [3].
With `O=C(c1ccc(-c2ccc(Cl)cc2)cc1)C1CCC(Sc2ccccc2)C1C(=O)O` (stereo not drawn) [Example 312, Cyclopentanecarboxylic acid, 2-[(4'-chloro[1,1'-biphenyl]-4-yl)carbonyl]-5-(phenylthio)-, (1α,2β,5α)-], the half-maximal inhibitory concentration (IC50) in experiment [1] (setting [4]) was 0.06 µM; in experiment [2], 0.871 µM; in experiment [3], 0.08 µM.
`CCCC/C=C\c1ccc(-c2ccc(C(=O)CC(CCCc3ccccc3)C(=O)O)cc2)cc1` (stereo not drawn) [Example 356, [1,1'-Biphenyl]-4-butanoic acid, 4'-(1-hexenyl)-γ-oxo-α-(3-phenylpropyl)-, (Z)-]: the concentration for half-maximal inhibition (IC50) in experiment [1] (setting [4]) stood at 0.188 µM. The figures for the inhibition at 5 µM in experiment [2] and in experiment [3] were 14% and 45%, respectively.
On to `O=C(O)[C@H]1[C@H](CSc2nc3ccccc3o2)CC[C@@H]1C(=O)c1ccc(-c2ccc(Cl)cc2)cc1` (relative stereo) [Example 384, Cyclopentanecarboxylic acid, 2-[(2-benzoxazolylthio)methyl]-5-[(4'-chloro[1,1'-biphenyl]-4-yl)carbonyl]-, (1α,2β,5β)-], for which the figures for the half-inhibitory concentration (IC50) in experiment [1] (setting [4]), in experiment [2] and in experiment [3] were 0.078 µM, 0.167 µM and 0.129 µM, respectively.
The like results for `O=C(O)[C@H]1[C@H](CON2C(=O)c3ccccc3C2=O)CC[C@@H]1C(=O)c1ccc(-c2ccc(Cl)cc2)cc1` (relative stereo) [Example 389, Cyclopentanecarboxylic acid, 2-[(4'-chloro[1,1'-biphenyl]-4-yl)carbonyl]-5-[[(1,3-dihydro-1,3-dioxo-2H-isoindol-2-yl)oxy]methyl]-, (1α,2β,5β)-] were, in that order, 0.0063 µM, 0.023 µM and 0.015 µM.
Take `CCCCCCOc1ccc(-c2ccc(C(=O)C3CCC=C3C(=O)O)cc2)cc1` (stereo not drawn) [Example 443, 1-Cyclopentene-1-carboxylic acid, 5-[[4'-(hexyloxy)[1,1'-biphenyl]-4-yl]carbonyl]-]: the half-maximal inhibitory concentration (IC50) in experiment [1] (setting [4]) was determined as 4.61 µM. Further, the inhibition at 5 µM in experiment [2] came to 16%; in experiment [3], 20%.
As for `C#Cc1ccc(-c2ccc(C(=O)CC(CCCc3ccccc3)C(=O)O)cc2)cc1` (stereo not drawn) [Example 351, [1,1'-Biphenyl]-4-butanoic acid, 4'-ethynyl-γ-oxo-α-(3-phenylpropyl)-], the 50% inhibitory concentration (IC50) in experiment [1] (setting [4]) amounted to 0.05 µM; in experiment [2] it was 0.151 µM; in experiment [3] it was 0.107 µM.
In the case of `CCN(CC)C(=O)c1cccc(CCC(CC(=O)c2ccc(-c3ccc(Cl)cc3)cc2)C(=O)O)c1` (stereo not drawn) [Example 144, 4-[4-(4-chlorophenyl)phenyl]-4-oxo-2-[2-(3-N,N-diethylcarbamoyl)phenyl]butanoic acid], the half-inhibitory concentration (IC50) in experiment [1] (setting [4]) worked out at 0.0034 µM; in experiment [2] it was 0.029 µM; in experiment [3] it was 0.015 µM.
On to `O=C(O)[C@H]1[C@H](CN2C(=O)c3cc(Cl)c([N+](=O)[O-])cc3C2=O)CC[C@@H]1C(=O)c1ccc(-c2ccc(Cl)cc2)cc1` (relative stereo) [Example 390, Cyclopentanecarboxylic acid, 2-[(4'-chloro[1,1'-biphenyl]-4-yl)carbonyl]-5-[(5-chloro-1,3-dihydro-6-nitro-1,3-dioxo-2H-isoindol-2-yl)methyl]-, (1α,2β,5β)-], for which the half-maximal inhibitory concentration (IC50) in experiment [1] (setting [4]) is 0.015 µM; in experiment [2], 0.0012 µM; in experiment [3] it was 0.01 µM.
Take `CC(=O)O[C@@H]1C[C@@H](C(=O)c2ccc(-c3ccc(Cl)cc3)cc2)[C@H]1C(=O)O` (relative stereo) [Example 394, Cyclobutanecarboxylic acid, 2-(acetyloxy)-4-[(4'-chloro[1,1'-biphenyl]-4-yl)carbonyl]-, (1α,2β,4α)-]: in experiment [1] (setting [4]), the 50% inhibitory concentration (IC50) came to 2 µM. In addition, the inhibition at 5 µM in experiment [2] worked out at 15%; in experiment [3], 26%.
With `O=C(CC(CCN1C(=O)CCC1=O)C(=O)O)c1ccc(-c2ccc(Cl)cc2)cc1` (stereo not drawn) [Example 411, 1-Pyrrolidinebutanoic acid, α-[2-(4'-chloro[1,1'-biphenyl]-4-yl)-2-oxoethyl]-2,5-dioxo-], the results for the 50% inhibitory concentration (IC50) in experiment [1] (setting [4]), in experiment [2] and in experiment [3] were 0.027 µM, 0.213 µM and 0.116 µM, respectively.
The matching figures for `O=C(O)[C@H]1[C@H](CSCc2ccccc2)CC[C@@H]1C(=O)c1ccc(-c2ccc(Cl)cc2)cc1` (relative stereo) [Example 372, Cyclopentanecarboxylic acid, 2-[(4'-chloro[1,1'-biphenyl]-4-yl)carbonyl]-5-[[(phenylmethyl)thio]methyl]-, (1α,2β,5β)-]: 0.022 µM, 0.065 µM and 0.039 µM.
As for `COc1ccc(CSCCC(CC(=O)c2ccc(-c3ccc(Cl)cc3)cc2)C(=O)O)cc1` (stereo not drawn) [Example 427, [1,1'-Biphenyl]-4-butanoic acid, 4'-chloro-α-[2-[[(4-methoxyphenyl)methyl]thio]ethyl]-γ-oxo-], the IC50 in experiment [1] (setting [4]) turned out to be 0.042 µM; in experiment [2], 0.362 µM; in experiment [3], 0.189 µM.
For the compound `O=C(c1ccc(-c2ccc(Cl)cc2)cc1)[C@H]1CCN(C(=O)Cc2ccccc2)[C@@H]1C(=O)O` [Example 170, L-Proline, 3-[(4'-chloro[1,1'-biphenyl]-4-yl)carbonyl]-1-(phenylacetyl)-, trans-], the IC50 worked out at 0.103 µM in experiment [1] (setting [4]), 1.8 µM in experiment [2] and 0.296 µM in experiment [3].
